According to ChEMBL document CHEMBL2390897, “3-Anhydro-6-hydroxy-ophiobolin A, a new sesterterpene inhibiting the growth of methicillin-resistant Staphylococcus aureus and inducing the cell death by apoptosis on K562, from the phytopathogenic fungus Bipolaris oryzae” (Bioorg Med Chem Lett, 2013):
In brackets after ≈: the same amount, converted by molar mass.

Tested on: Mycobacterium tuberculosis
Experiment: Antimicrobial activity against Bacille Calmette-Guerin
Type: functional
Details: variant bovis BCG

| Compound | MIC [µg/mL] |
| --- | --- |
| CC(C)=C[C@H]1C[C@H](C)[C@]2(CC[C@]3(C)C[C@@H]4C(C)=CC(=O)[C@H]4/C(C=O)=C\C[C@H]32)O1 [3-ANHYDRO-6-EPI-OPHIOBOLIN A] | > 100 |
| NNC(=O)c1ccncc1 [ISONIAZID] | 0.05 (≈ 0.365 µM) |
| CC(C)=C[C@H]1C[C@H](C)[C@]2(CC[C@]3(C)C[C@@H]4C(C)=CC(=O)[C@]4(O)/C(C=O)=C\C[C@H]32)O1 | 12.5 (≈ 31.4 µM) |
| CC(C)=C[C@H]1C[C@H](C)[C@]2(CC[C@]3(C)C[C@@H]4C(C)=CC(=O)[C@@H]4/C(C=O)=C\C[C@H]32)O1 | > 100 |
